Laboratory results taken from patent US7981930B2, “Compositions and kits for treating influenza” (Adamas Pharmaceuticals, Inc., priority 2007, dated 2011).
Values after ≈ are worked out from the molar mass of the structure shown. Like-named read-outs stand apart in the source and are kept apart here.

How the values were obtained:
[1] = tested on: A/Sydney/05/97 H3N2 virus; assay type: cell-based; conditions: for increase in sensitivity of the virus to the drug in triple combination compared to monotherapy: drug used with the two other drugs vs. monotherapy; for concentration range at which synergy was seen: drugs in combination, MDCK 96-well
[2] = tested on: Influenza A/Victoria/3/75 (H3N2) virus; assay: In vitro kinetic assay of mono and combination therapy in MDCK and SIAT-1 cells (viral load by CCID50, CPE scoring); assay type: cell-based
[3] = tested on: A/Victoria/3/75 (H3N2) virus; assay: Mouse model of influenza infection, treatment started before infection (Example 3A); assay type: in vivo, mice
[4] = tested on: wild type A/Albany (H3N2) strain; assay: Hollow fiber system, MDCK cells, continuous infusion 168 hours, viral titer and sequencing; assay type: cell-based, Influenza A virus (H3N2); conditions: for effect on viral titer: drug alone at low dose (amantadine 0.1 μg/mL; ribavirin 0.5 μg/mL); for concentrations at which the triple combination demonstrated synergism: hollow fiber, steady-state infusion
[5] = tested on: A/Victoria/3/75 (H3N2) virus; assay: Mouse model of influenza infection, treatment initiated 24 or 48 hours after infection (Example 3B); assay type: in vivo, mice; conditions: for weight loss: day 9
A/Albany/1/98 (H3N2) = assay: microbe, parasite or virus in culture; assay type: cell-based; conditions: for EC50: Influenza A virus, H3N2, MDCK; for EC25, Target serum C: molar equivalent of in vitro EC25; for EC75, Target serum C: molar equivalent of in vitro EC75; for EC25, In vitro C / EC75, In vitro C: MDCK cells in flasks, virus reduction at 72 hrs
[6] = amantadine 3 mg/ml, oseltamivir 10 or 30 mg/kg/day, ribavirin 7 or 21 mg/kg/day, monotherapy
[7] = drug alone at high dose (amantadine 1.0 μg/mL; ribavirin 5 μg/mL), 48 hours
[8] = treatment initiated 48 hours after infection
[9] = molar equivalent of in vitro EC50, read-out: EC50, Target serum C
[10] = monotherapy, concentration of drug that reduces 50% of the virus at 72 hrs, read-out: EC50, In vitro C

Structure (SMILES)	increase in sensitivity of the virus to the drug in triple combination compared to monotherapy [1]	concentration range at which synergy was seen [1]	weight loss during the infection [3, 6]	times to death ([3]; mouse, in vivo)	reduction in titer [4, 7]	effect on viral titer [4]	concentrations at which the triple combination demonstrated synergism [4]	weight loss [5, 8]	EC50 (A/Albany/1/98 (H3N2); [9])	EC50 (A/Albany/1/98 (H3N2); [10])	EC25, Target serum C (A/Albany/1/98 (H3N2))	EC75, Target serum C (A/Albany/1/98 (H3N2))	EC25, In vitro C (A/Albany/1/98 (H3N2); monotherapy)	EC75, In vitro C (A/Albany/1/98 (H3N2); monotherapy)	other results
NC12CC3CC(CC(C3)C1)C2 [Amantadine, 1-amino-adamantane]	10 fold	0.1 to 1 µg/mL	more substantial	significantly increased	2-3 log	negligible effect	0.1 to 1 µg/mL	~35%	480 nM	91 ng/mL	288 nM	815 nM	54 ng/mL (≈ 357 nM)	153 ng/mL (≈ 1010 nM)	reduction in viral load ([1]; amantadine monotherapy at 1 μg/ml): ~60%; time post infection until substantial cell death was seen [2]: 144 h; survival rate ([3]; amantadine 3 mg/ml by Alzet pump (4 mg/kg/day), 3 survivors out of 11): 27%; protection (survival) ([3]; amantadine 10 mg/ml by Alzet pump (13 mg/kg/day)): 92%; weight loss during the infection ([3]; amantadine 10 mg/ml monotherapy): minimal; mice protected, UK/EU mortality criteria (death=20% weight loss) ([3]; mouse, in vivo): 10%; mortality (UK/EU mortality criteria) ([5]; mouse, in vivo): 100%
CCOC(=O)C1=C[C@@H](OC(CC)CC)[C@H](NC(C)=O)[C@@H](N)C1 [Oseltamivir]	over 100 fold	0.001 to 0.032 µg/mL	more substantial	–	–	–	0.001 to 0.01 µg/mL	~35%	–	–	0.080 nM	0.240 nM	0.025 ng/mL (≈ 0.08 nM)	0.075 ng/mL (≈ 0.24 nM)	reduction in viral load ([1]; oseltamivir monotherapy at 0.1 μg/ml): ~50%; mice protected, UK/EU mortality criteria (death=20% weight loss) ([3]; oseltamivir 10 mg/kg/day, amantadine 3 mg/ml, ribavirin 7 mg/kg/day, as monotherapy or as triple combination at the same concentrations): 40%; survival benefit ([3]; oseltamivir monotherapy at 10 and 30 mg/kg/day oral gavage): 92-100%; reduction in titer ([4]; oseltamivir alone, both doses (1 and 10 ng/mL)): ~1 log; mortality (UK/EU mortality criteria) ([5]; treatment initiated 24 hours after infection, by day 9, amantadine 28, oseltamivir 10 mg/kg/day): 100%; EC50 (A/Albany/1/98 (H3N2); 72 h, read-out: EC50, In vitro C): 0.05 ng/mL; EC50 (A/Albany/1/98 (H3N2); read-out: EC50, Target serum C): 0.16 nM
NC(=O)c1ncn([C@@H]2O[C@H](CO)[C@@H](O)[C@H]2O)n1 [Ribavirin]	100 fold	0.032 to 1.0 µg/mL	more substantial	significantly increased	~3 log	negligible effect	0.5 to 5 µg/mL	about 26%	1030 nM	420 ng/mL	760 nM	1500 nM	310 ng/mL (≈ 1270 nM)	615 ng/mL (≈ 2520 nM)	reduction in viral load ([1]; ribavirin monotherapy at 1 μg/ml): approximately 10%; reduction in viral load ([1]; ribavirin monotherapy at 3.2 μg/ml): ~95%; weight as percent of original weight ([5]; treatment initiated 48 hours after infection, day 13): approximately 80%
